{"source": "paper PMC5218480", "about": "(PLoS ONE, 2017)", "system": "MV-4-11 cells", "assay": "Gene expression microarray analysis (Affymetrix PrimeView) and GSEA", "assay_type": "cell-based, human", "design": "RFU PODN (11730768_x_at) / Fold change /veh PODN (11730768_x_at) / RFU LINC00158 (11744669_a_at) / Fold change /veh LINC00158 (11744669_a_at) / RFU DUSP10 (11751237_a_at) / Fold change /veh DUSP10 (11751237_a_at) / RFU ID3 (11757404_x_at) / Fold change /veh ID3 (11757404_x_at) / RFU PLEKHG5 (11737974_s_at) / Fold change /veh PLEKHG5 (11737974_s_at) / RFU LRRC4B (11730491_at) / Fold change /veh LRRC4B (11730491_at) / RFU GIMAP4 (11747438_a_at) / Fold change /veh GIMAP4 (11747438_a_at) / RFU KRT8 (11758183_x_at) / Fold change /veh KRT8 (11758183_x_at) / RFU CNN1 (11734310_a_at) / Fold change /veh CNN1 (11734310_a_at) / RFU VPS37D (11726825_at) / Fold change /veh VPS37D (11726825_at) / RFU C10orf10 (11716522_x_at) / Fold change /veh C10orf10 (11716522_x_at) / RFU KIR2DL2 /// KIR2DL4 /// KIR2DL5A /// KIR2DL5B /// KIR2DS1 /// KIR2DS2 /// KIR2DS3 /// KIR2DS4 /// KIR3DL3 /// KIR3DL3 /// KIR3DS1 (11738374_at) / Fold change /veh KIR2DL2 /// KIR2DL4 /// KIR2DL5A /// KIR2DL5B /// KIR2DS1 /// KIR2DS2 /// KIR2DS3 /// KIR2DS4 /// KIR3DL3 /// KIR3DL3 /// KIR3DS1 (11738374_at) / RFU C1QL1 (11718748_at) / Fold change /veh C1QL1 (11718748_at) / RFU TMPRSS4 (11747572_a_at) / Fold change /veh TMPRSS4 (11747572_a_at) / RFU HAMP (11756126_x_at) / Fold change /veh HAMP (11756126_x_at) / RFU RNFT2 (11725882_a_at) / Fold change /veh RNFT2 (11725882_a_at) / RFU NR4A2 (11747474_a_at) / Fold change /veh NR4A2 (11747474_a_at) / RFU ABCC12 (11746883_a_at) / Fold change /veh ABCC12 (11746883_a_at) / RFU TMEM136 (11760407_x_at) / Fold change /veh TMEM136 (11760407_x_at) / RFU CLDN22 /// WWC2 (11732394_at) / Fold change /veh CLDN22 /// WWC2 (11732394_at) / RFU HLA-DPB1 (11760878_x_at) / Fold change /veh HLA-DPB1 (11760878_x_at) / RFU SPINT1 (11716480_a_at) / Fold change /veh SPINT1 (11716480_a_at) / RFU GAP43 (11754022_s_at) / Fold change /veh GAP43 (11754022_s_at) / RFU A4GNT (11735810_at) / Fold change /veh A4GNT (11735810_at) / RFU PRB3 (11715151_x_at) / Fold change /veh PRB3 (11715151_x_at) / RFU TUBB4B (11761932_at) / Fold change /veh TUBB4B (11761932_at) / RFU CAPN14 (11732068_a_at) / Fold change /veh CAPN14 (11732068_a_at) / RFU TMCC2 (11721928_a_at) / Fold change /veh TMCC2 (11721928_a_at) / RFU IRGQ (11745062_a_at) / Fold change /veh IRGQ (11745062_a_at) / RFU FAM174B (11720279_a_at) / Fold change /veh FAM174B (11720279_a_at) / RFU TMPRSS4 (11748680_a_at) / Fold change /veh TMPRSS4 (11748680_a_at) / RFU FAM212B (11763350_a_at) / Fold change /veh FAM212B (11763350_a_at) / RFU PLEKHG5 (11743358_a_at) / Fold change /veh PLEKHG5 (11743358_a_at) / RFU ZSCAN30 (11745921_a_at) / Fold change /veh ZSCAN30 (11745921_a_at) / RFU CMKLR1 (11741424_a_at) / Fold change /veh CMKLR1 (11741424_a_at) / RFU LOC101060620 /// MAPK8IP1 (11723275_at) / Fold change /veh LOC101060620 /// MAPK8IP1 (11723275_at) / RFU SPTSSB (11747773_x_at) / Fold change /veh SPTSSB (11747773_x_at) / RFU PRSS12 (11739890_at) / Fold change /veh PRSS12 (11739890_at) / RFU BIN1 (11741810_x_at) / Fold change /veh BIN1 (11741810_x_at) / RFU WNT11 (11732464_a_at) / Fold change /veh WNT11 (11732464_a_at) / RFU C10orf10 (11716521_a_at) / Fold change /veh C10orf10 (11716521_a_at) / RFU C5orf56 (11738089_at) / Fold change /veh C5orf56 (11738089_at) / RFU CYB561 (11721691_x_at) / Fold change /veh CYB561 (11721691_x_at) / RFU ANKRD19P (11752326_a_at) / Fold change /veh ANKRD19P (11752326_a_at) / RFU OR2T12 /// OR2T33 /// OR2T8 (11738714_s_at) / Fold change /veh OR2T12 /// OR2T33 /// OR2T8 (11738714_s_at) / RFU VCAN (11748164_a_at) / Fold change /veh VCAN (11748164_a_at) / RFU JSRP1 (11732532_at) / Fold change /veh JSRP1 (11732532_at) / RFU KRTAP10-11 (11738290_x_at) / Fold change /veh KRTAP10-11 (11738290_x_at) / RFU MYO3A (11730013_a_at) / Fold change /veh MYO3A (11730013_a_at) / RFU EBF3 (11725865_a_at) / Fold change /veh EBF3 (11725865_a_at) / RFU CAMK2N1 (11719241_x_at) / Fold change /veh CAMK2N1 (11719241_x_at) / RFU C5orf56 (11738088_a_at) / Fold change /veh C5orf56 (11738088_a_at) / RFU OLFML3 (11715873_a_at) / Fold change /veh OLFML3 (11715873_a_at) / RFU LOC100653217 /// NTM (11731650_a_at) / Fold change /veh LOC100653217 /// NTM (11731650_a_at) / RFU MAPK11 (11762145_a_at) / Fold change /veh MAPK11 (11762145_a_at) / RFU FIZ1 (11724087_x_at) / Fold change /veh FIZ1 (11724087_x_at) / RFU OASL (11726364_x_at) / Fold change /veh OASL (11726364_x_at) / RFU SOX15 (11748057_x_at) / Fold change /veh SOX15 (11748057_x_at) / RFU CD79A (11719716_a_at) / Fold change /veh CD79A (11719716_a_at) / RFU HIST1H1D (11736915_at) / Fold change /veh HIST1H1D (11736915_at) / RFU CASKIN2 (11723855_a_at) / Fold change /veh CASKIN2 (11723855_a_at) / RFU LOC730098 (11760151_x_at) / Fold change /veh LOC730098 (11760151_x_at) / RFU OR4N2 (11742367_at) / Fold change /veh OR4N2 (11742367_at) / RFU PRRT2 (11749266_a_at) / Fold change /veh PRRT2 (11749266_a_at) / RFU SNX32 (11753110_a_at) / Fold change /veh SNX32 (11753110_a_at) / RFU CDHR5 (11726645_a_at) / Fold change /veh CDHR5 (11726645_a_at) / RFU RCAN1 (11760418_a_at) / Fold change /veh RCAN1 (11760418_a_at) / RFU FAM167A (11723789_a_at) / Fold change /veh FAM167A (11723789_a_at) / RFU FAM26E (11764081_at) / Fold change /veh FAM26E (11764081_at) / RFU ISYNA1 (11749810_s_at) / Fold change /veh ISYNA1 (11749810_s_at) / RFU ACY1 (11761880_at) / Fold change /veh ACY1 (11761880_at) / RFU 11764098_at / Fold change /veh 11764098_at / RFU SAMD14 (11745864_x_at) / Fold change /veh SAMD14 (11745864_x_at) / RFU NPB (11741838_a_at) / Fold change /veh NPB (11741838_a_at) / RFU TMPRSS6 (11731388_a_at) / Fold change /veh TMPRSS6 (11731388_a_at) / RFU KRTAP10-2 (11738614_at) / Fold change /veh KRTAP10-2 (11738614_at) / RFU ARHGAP8 /// PRR5-ARHGAP8 (11727945_x_at) / Fold change /veh ARHGAP8 /// PRR5-ARHGAP8 (11727945_x_at) / RFU KRTAP5-7 /// NADSYN1 (11734609_at) / Fold change /veh KRTAP5-7 /// NADSYN1 (11734609_at) / RFU RASL12 (11751679_a_at) / Fold change /veh RASL12 (11751679_a_at) / RFU CDKN2B (11736163_a_at) / Fold change /veh CDKN2B (11736163_a_at) / RFU PRF1 (11729649_at) / Fold change /veh PRF1 (11729649_at) / RFU, ZNF638 /// ZNF638-IT1 / Fold change vs veh, ZNF638 /// ZNF638-IT1 / RFU, PANK3 / Fold change vs veh, PANK3 / RFU, SH3YL1 / Fold change vs veh, SH3YL1 / RFU, ZEB2 / Fold change vs veh, ZEB2 / RFU, NRIP1 / Fold change vs veh, NRIP1 / RFU, PTTG1IP / Fold change vs veh, PTTG1IP / RFU, CAPN2 / Fold change vs veh, CAPN2 / RFU, MED14 / Fold change vs veh, MED14 / RFU, SNORA58 / Fold change vs veh, SNORA58 / RFU, C1orf63 / Fold change vs veh, C1orf63 / RFU, LRRFIP1 / Fold change vs veh, LRRFIP1 / RFU, NDUFAF7 / Fold change vs veh, NDUFAF7 / RFU, SLC12A2 / Fold change vs veh, SLC12A2 / RFU, IBTK / Fold change vs veh, IBTK / RFU, ESF1 / Fold change vs veh, ESF1 / Fold change vs veh, TMEM50B / RFU, TAOK1 / Fold change vs veh, TAOK1 / RFU, ACBD3 / Fold change vs veh, ACBD3 / RFU, TMA16 / Fold change vs veh, TMA16 / RFU, RWDD3 / Fold change vs veh, RWDD3 / RFU, BCAT1 / Fold change vs veh, BCAT1 / RFU, EDEM3 / Fold change vs veh, EDEM3 / RFU, TMEM33 / Fold change vs veh, TMEM33 / RFU, WDR75 / Fold change vs veh, WDR75 / RFU, AHCTF1 / Fold change vs veh, AHCTF1 / RFU, TFRC / Fold change vs veh, TFRC / RFU, ZDHHC17 / Fold change vs veh, ZDHHC17 / RFU, NOM1 / Fold change vs veh, NOM1 / RFU, ARL8B / Fold change vs veh, ARL8B / RFU, ZBTB11 / Fold change vs veh, ZBTB11 / RFU, TAMM41 / Fold change vs veh, TAMM41 / RFU, KIAA1704 /// LOC100996395 / Fold change vs veh, KIAA1704 /// LOC100996395 / RFU, ING1 / Fold change vs veh, ING1 / RFU, TRMT61B / Fold change vs veh, TRMT61B / RFU, FUBP3 / Fold change vs veh, FUBP3 / RFU, TP53 / Fold change vs veh, TP53 / RFU, TNKS2 / Fold change vs veh, TNKS2 / RFU, ZFP14 / Fold change vs veh, ZFP14 / RFU, ACTR2 / Fold change vs veh, ACTR2 / RFU, PPP3R1 / Fold change vs veh, PPP3R1 / RFU, PIK3R1 / Fold change vs veh, PIK3R1 / RFU, HNRNPA1 / Fold change vs veh, HNRNPA1 / RFU, RNF170 / Fold change vs veh, RNF170 / RFU, ZNF28 / Fold change vs veh, ZNF28 / RFU, RNGTT / Fold change vs veh, RNGTT / RFU, OGT / Fold change vs veh, OGT / RFU, BRD1 / Fold change vs veh, BRD1 / RFU, MARS / Fold change vs veh, MARS / RFU, ZNF655 / Fold change vs veh, ZNF655 / RFU, FAHD1 / Fold change vs veh, FAHD1 / RFU, BDP1 / Fold change vs veh, BDP1 / RFU, LRRCC1 / Fold change vs veh, LRRCC1 / RFU, ARID1A / Fold change vs veh, ARID1A / RFU, ZNF146 / Fold change vs veh, ZNF146 / RFU, ZNF330 / Fold change vs veh, ZNF330 / RFU, GPN3 / Fold change vs veh, GPN3 / RFU, C9orf123 / Fold change vs veh, C9orf123 / RFU, N4BP2L2 / Fold change vs veh, N4BP2L2 / RFU, ARFIP1 / Fold change vs veh, ARFIP1 / RFU, FAM179B / Fold change vs veh, FAM179B / RFU, BCL10 / Fold change vs veh, BCL10 / RFU, UHRF1BP1L / Fold change vs veh, UHRF1BP1L / RFU, BET1 / Fold change vs veh, BET1 / RFU, CNOT2 / Fold change vs veh, CNOT2 / RFU, ZNF268 / Fold change vs veh, ZNF268 / Fold change vs veh, ZNF507 / RFU, DGCR2 / Fold change vs veh, DGCR2 / RFU, WDSUB1 / Fold change vs veh, WDSUB1 / Fold change vs veh, HSP90B1 /// MIR3652 / RFU, ADSS / Fold change vs veh, ADSS / RFU, GK / Fold change vs veh, GK / RFU, ZNF148 / Fold change vs veh, ZNF148 / RFU, TAF9 / Fold change vs veh, TAF9 / RFU, SLC1A5 / Fold change vs veh, SLC1A5 / RFU, SLMO2 / Fold change vs veh, SLMO2 / RFU, ABCC4 / Fold change vs veh, ABCC4 / RFU, LOC101060439 /// RAP1B / Fold change vs veh, LOC101060439 /// RAP1B / RFU, RFX7 / Fold change vs veh, RFX7 / RFU, GTPBP10 / Fold change vs veh, GTPBP10 / RFU, CNEP1R1 / Fold change vs veh, CNEP1R1 / RFU, BIVM-ERCC5 /// ERCC5 / Fold change vs veh, BIVM-ERCC5 /// ERCC5 / RFU, ILF3 / Fold change vs veh, ILF3 / RFU 11762660_at / Fold change /veh 11762660_at / RFU VCAN (11757783_s_at) / Fold change /veh VCAN (11757783_s_at) / RFU DDX43 (11728927_at) / Fold change /veh DDX43 (11728927_at) / RFU KRT8 (11758188_x_at) / Fold change /veh KRT8 (11758188_x_at) / RFU NKD1 (11759106_at) / Fold change /veh NKD1 (11759106_at) / RFU SRD5A1 (11742802_a_at) / Fold change /veh SRD5A1 (11742802_a_at) / RFU TPSAB1 /// TPSB2 (11721975_s_at) / Fold change /veh TPSAB1 /// TPSB2 (11721975_s_at) / RFU GSTM3 (11746129_a_at) / Fold change /veh GSTM3 (11746129_a_at) / RFU IL23R (11737362_x_at) / Fold change /veh IL23R (11737362_x_at) / RFU TMEM51 (11727254_a_at) / Fold change /veh TMEM51 (11727254_a_at) / RFU PIWIL2 (11732686_x_at) / Fold change /veh PIWIL2 (11732686_x_at) / RFU ORM1 (11744905_x_at) / Fold change /veh ORM1 (11744905_x_at) / RFU CCDC152 (11743942_at) / Fold change /veh CCDC152 (11743942_at) / RFU ECM1 (11717891_a_at) / Fold change /veh ECM1 (11717891_a_at) / RFU IL23R (11748794_a_at) / Fold change /veh IL23R (11748794_a_at) / RFU TNFAIP8L3 (11732012_x_at) / Fold change /veh TNFAIP8L3 (11732012_x_at) / RFU MBOAT4 (11741988_at) / Fold change /veh MBOAT4 (11741988_at) / RFU 11764193_at / Fold change /veh 11764193_at / RFU TMEM53 (11763286_at) / Fold change /veh TMEM53 (11763286_at) / RFU MAGEB2 (11727129_at) / Fold change /veh MAGEB2 (11727129_at) / RFU TMEM200A (11744735_a_at) / Fold change /veh TMEM200A (11744735_a_at) / RFU CCDC152 (11751479_a_at) / Fold change /veh CCDC152 (11751479_a_at) / RFU FAM211A (11726209_a_at) / Fold change /veh FAM211A (11726209_a_at) / RFU RGS16 (11746705_a_at) / Fold change /veh RGS16 (11746705_a_at) / RFU VCAN (11755009_s_at) / Fold change /veh VCAN (11755009_s_at) / RFU RHOB (11743442_s_at) / Fold change /veh RHOB (11743442_s_at) / RFU RGS16 (11720943_a_at) / Fold change /veh RGS16 (11720943_a_at) / RFU RGS16 (11720944_at) / Fold change /veh RGS16 (11720944_at) / RFU, VPS4B / Fold change vs veh, VPS4B / RFU, CREB1 / Fold change vs veh, CREB1 / RFU, DNAJC13 / Fold change vs veh, DNAJC13 / RFU, GNAQ / Fold change vs veh, GNAQ / RFU, CDK5R1 / Fold change vs veh, CDK5R1 / RFU, ZRANB3 / Fold change vs veh, ZRANB3 / RFU, CUL4A / Fold change vs veh, CUL4A / RFU, CCNY / Fold change vs veh, CCNY / RFU, UFL1 / Fold change vs veh, UFL1 / RFU, COG3 / Fold change vs veh, COG3 / RFU, DIAPH2 / Fold change vs veh, DIAPH2 / RFU, SKA2 / Fold change vs veh, SKA2 / RFU, AFF3 / Fold change vs veh, AFF3 / RFU, LMF1 / Fold change vs veh, LMF1 / RFU, IPO11 / Fold change vs veh, IPO11 / RFU, DFFB / Fold change vs veh, DFFB / RFU, FOXP1 / Fold change vs veh, FOXP1 / RFU, CARD8 / Fold change vs veh, CARD8 / RFU, STRN3 / Fold change vs veh, STRN3 / RFU, ADK / Fold change vs veh, ADK / RFU, RASSF2 / Fold change vs veh, RASSF2 / RFU, WIPF1 / Fold change vs veh, WIPF1 / RFU, LARP1B / Fold change vs veh, LARP1B / RFU, RASA1 / Fold change vs veh, RASA1 / RFU, RB1 / Fold change vs veh, RB1 / RFU, PPFIA1 / Fold change vs veh, PPFIA1 / RFU, MAT2A / Fold change vs veh, MAT2A / RFU, CCT5 / Fold change vs veh, CCT5 / RFU, WDR92 / Fold change vs veh, WDR92 / RFU, CUX1 / Fold change vs veh, CUX1 / RFU, TTC7A / Fold change vs veh, TTC7A / RFU, TMEM135 / Fold change vs veh, TMEM135 / RFU, DEPTOR / Fold change vs veh, DEPTOR / RFU, CPM / Fold change vs veh, CPM / RFU, DNAJB6 / Fold change vs veh, DNAJB6 / RFU, CACNA2D3 / Fold change vs veh, CACNA2D3 / RFU, DTX4 / Fold change vs veh, DTX4 / RFU, TFCP2 / Fold change vs veh, TFCP2 / RFU, GMCL1 /// GMCL1P1 / Fold change vs veh, GMCL1 /// GMCL1P1 / RFU, AEBP2 / Fold change vs veh, AEBP2 / RFU, SNHG1 /// SNORD22 /// SNORD25 /// SNORD26 /// SNORD27 /// SNORD28 /// SNORD29 /// SNORD31 / Fold change vs veh, SNHG1 /// SNORD22 /// SNORD25 /// SNORD26 /// SNORD27 /// SNORD28 /// SNORD29 /// SNORD31 / Fold change (Aza/veh), C12orf56 (ProbeSet 11735607_a_at) / Fold change (ACY-1035/veh), C12orf56 (ProbeSet 11735607_a_at) / Fold change (Aza/veh), FGFR1OP (ProbeSet 11751329_s_at) / Fold change (ACY-1035/veh), FGFR1OP (ProbeSet 11751329_s_at) / Fold change (Aza/veh), VPS36 (ProbeSet 11739960_a_at) / Fold change (ACY-1035/veh), VPS36 (ProbeSet 11739960_a_at) / RFU SYPL1 (11715823_x_at) / Fold change /veh SYPL1 (11715823_x_at) / RFU IGFBP7 (11715501_s_at) / Fold change /veh IGFBP7 (11715501_s_at) / RFU REEP3 (11722064_at) / Fold change /veh REEP3 (11722064_at) / RFU IGLL1 (11728026_x_at) / Fold change /veh IGLL1 (11728026_x_at): dose or concentration left out as unconfirmed", "conditions": "MV-4-11 cells, 48 hours"}
{"smiles": "Nc1ncn([C@@H]2O[C@H](CO)[C@@H](O)[C@H]2O)c(=O)n1", "note": "[azacitidine]", "values": [{"measurement": "RFU CAMK2N1 (11719241_x_at)", "value": 56.90, "unit": "RFU"}]}
